85 compounds from PubChem BioAssay AID1645848 can be followed below.

Converted amounts (≈) assume the structure as drawn. Non-standard residues stand in square brackets, D forms with d. Residues, ends and D or L forms follow the SMILES beside them. ξ: configuration not given here. ξLac(3-iPr) = CC(C)CC(O)C(=O)O; NMeV = CN[CH](C(=O)O)C(C)C; NMeA = CN[CH](C)C(=O)O; βAla = NCCC(=O)O

For this data set the following is noted: buffer; pH 7.4; 6.0 h; 150.0 µM.
Consider `O=C(c1ccc(-c2ncc3cnc(-c4ccccc4)cn23)cc1)N1CCS(=O)(=O)CC1`, for which the kinetic solubility stood at 65.1 µg/mL (≈ 150 µM). For `CCn1cc(CNC(=O)c2cc(-c3ccc(C)cc3)nc3ccc(Br)cc23)c(C)n1` the value was under 1 µg/mL; for `O=C(c1ccc2c(c1)ncn2-c1ccccc1)N1CCCCC1`, over 45 µg/mL; for `COc1ccc(-n2nc(C)c([C@@H]3C=C[C@@H](NCc4ccc(F)cc4)C3)c2C)cc1`, 42 µg/mL (≈ 107 µM). The compound `CC(=O)c1c(C)[nH]c(C(=O)Nc2cccc([S+](=O)([O-])Nc3ccc(C#N)cc3)c2)c1C` registered a solubility (kinetic) of 36.8 µg/mL (≈ 84.3 µM).

The compound `COc1cc(=O)n2c(c1C(=O)N(C)Cc1cscn1)CCN(C(=O)c1ccc(C)cc1C)CC2` showed a solubility (kinetic) of over 71 µg/mL.

`CNc1nc(C#N)c(-c2cccc3ccccc23)o1` showed a kinetic solubility of under 1 µg/mL.

In turn, `Cc1ccnc(NC(=S)N2CCC(c3cccc(C(F)(F)F)c3)CC2)c1` showed a kinetic solubility of 7.75 µg/mL (≈ 20.4 µM). The figure for `Cc1cc(-c2nnc3n2CCCCC3)c(C)n1-c1ccc(C(C)(C)C)cc1` is 20.9 µg/mL (≈ 57.6 µM); for `Cc1ccc(S(=O)(=O)Nc2ccccc2C(=O)Nc2ccc(-c3ccccc3)cc2)cc1` it is under 1 µg/mL. For `Cc1nn2c(c1-c1ccccc1-c1ccccc1)N(Cc1ccc(O)cc1)CCC2` the value was under 1 µg/mL. For `Cc1ccccc1C(=O)N1CCc2cc(-c3nc(NC(=O)c4ccc5c(c4)OCO5)sc3C)ccc21` the value was under 1 µg/mL; for `CCC(C)C1NC(=O)C2CCCN2C(=O)C(CC(C)C)OC(=O)CCNC(=O)C(C)N(C)C(=O)C(C(C)C)N(C)C1=O` (stereo not given) (cyclo([ξLac(3-iPr)]PI[NMeV][NMeA][βAla]); configuration not given here), 2.68 µg/mL (≈ 4.52 µM); for `CC1CCN(S(=O)(=O)c2ccc3c(c2)C(C)(C)C(=O)N3CC(=O)NCc2ccco2)CC1`, 34.2 µg/mL (≈ 74.4 µM). The compound `O=C(Nc1cccc(OC(F)(F)F)c1)c1cc(-c2ccc[nH]2)n[nH]1` had a solubility (kinetic) of 10.8 µg/mL (≈ 32 µM). Compared with the last compound, the solubility kinetic is about 3.2-fold lower. The figure for `O=C(Nc1ncnc2sc3c(c12)CCC3)c1ccco1` is 11.5 µg/mL (≈ 40.4 µM); for `CCCCCN(CCC12CC3CC(CC(C3)C1)C2)C(=O)NCCCc1ccncc1` it is under 1 µg/mL; for `O=C(NCc1ccccc1)c1cn2cc(-c3ccccc3)sc2n1` it is under 1 µg/mL.

On to `Cc1cc(C)c(CNC(=O)c2nc(-c3ccc(CN(C)C)cc3)cc3c2ccn3C(C)C)c(=O)[nH]1`, for which the kinetic solubility came to 40.3 µg/mL (≈ 85.4 µM).

The compound `CC(C)(C)C1CCc2[nH]c3ccccc3c(=O)c2C1` (stereo not given) gave a kinetic solubility of 1.88 µg/mL (≈ 7.34 µM). `N#Cc1nc(-c2cccc3ccccc23)oc1Nc1ccccc1` came in with a solubility (kinetic) of under 1 µg/mL. For `Cc1onc(-c2ccc(F)cc2)c1COc1ccc(C(=O)N2CCS(=O)(=O)CC2)cn1` the value was over 66 µg/mL. For `CNc1oc(-c2cccc3ccccc23)nc1C(=O)Nc1cccc(C#N)c1` the value was under 1 µg/mL; for `O=c1c(O)c(-c2ccc(O)cc2)oc2cc(O)cc(O)c12`, 1.35 µg/mL (≈ 4.73 µM).

The compound `CC(=O)N1CCc2cc(-c3nc(NC(=O)Cc4ccc5c(c4)OCO5)sc3C)ccc21` registered a solubility (kinetic) of under 1 µg/mL.

`CN([C@@H](Cc1ccc(O[S+](=O)([O-])c2cccc3cnccc23)cc1)C(=O)N1CCN(C(=O)OCc2ccccc2)CC1)[S+](=O)([O-])c1cccc2cnccc12` showed a solubility (kinetic) of 1.26 µg/mL (≈ 1.61 µM). The figure for `COc1ccccc1-c1cc2c(ccn2C)c(C(=O)NCC2CCN(C)C(=O)C2)n1` (stereo not given) is over 90 µg/mL; for `C=C1[C@@H](C)C2[C@H](Cc3ccccc3)NC(=O)[C@@]23C(/C=C/C[C@H](C)C[C@@](C)(O)/C=C/[C@@H]3OC(C)=O)[C@@H]1O` (stereo not given in full) it is 1.9 µg/mL (≈ 3.85 µM); for `Cc1cccc(-n2cnc3cc(C(=O)N4CCCCC4)ccc32)c1` it is over 47 µg/mL. The compound `CC(C)Oc1cccc(-c2cnc(N3CCC(C(N)=O)CC3)s2)c1` had a kinetic solubility of 1.43 µg/mL (≈ 4.15 µM). The compound `COc1ccc(-c2csc(N3CCC(C(N)=O)CC3)n2)cc1OC` had a kinetic solubility of 17.5 µg/mL (≈ 50.5 µM). The figure for `FC(F)(F)c1ccc(N2CCN(C(=S)Nc3ccccn3)CC2)cc1` is 8.21 µg/mL (≈ 22.4 µM); for `COc1ccc(OC)c(C(=O)Nc2nc(-c3ccccc3)cs2)c1` it is under 1 µg/mL; for `COc1ccc(-c2ccc3nc(-c4ccc(SC)cc4)oc3c2)c(OC)c1OC` it is under 1 µg/mL. As to `Cc1cc(-c2nnc3n2CCCCC3)c(C)n1-c1ccccc1`, the solubility (kinetic) is over 45 µg/mL.

Consider `COc1ccc(-c2csc(NC(=O)c3ccccc3NS(=O)(=O)c3ccc(C)cc3)n2)cc1`, for which the kinetic solubility is under 1 µg/mL. For `O=C(Nc1nc(-c2ccccn2)cs1)c1cccc(S(=O)(=O)N2CCOCC2)c1` the value was 24.3 µg/mL (≈ 56.4 µM).

`CCc1nnc(NC(=O)c2nc(S(=O)(=O)Cc3ccc(C)cc3)ncc2Cl)s1` came in with a kinetic solubility of over 65 µg/mL. For `COc1ccc(CN2C(=O)[C@@H]3C[C@@H](CN3Cc3cccs3)Oc3ccccc32)cc1` the value was 2.52 µg/mL (≈ 5.99 µM); for `Cc1c(C)n(Cc2ccccc2)c2ccc(C(=O)OCCN(C)C)cc12`, 33 µg/mL (≈ 94 µM).

In turn, `CCOc1ccc(CCNC(=O)c2cc3ccccc3o2)cc1OCC` yielded a kinetic solubility of 8.88 µg/mL (≈ 25.1 µM). For `COC(=O)c1sccc1NC(=O)c1sccc1C` the value was under 1 µg/mL; for `CCOC(=O)NNc1ccc(N(CC)CC(C)O)nn1` (stereo not given), 4.72 µg/mL (≈ 16.7 µM). The figure for `COC(=O)C1=C(C)NC(C)=C(C(=O)O[C@@H]2CCCN(Cc3ccccc3)C2)[C@@H]1c1cccc([N+](=O)[O-])c1` is under 1 µg/mL; for `O=C(Nc1cc(Cc2ccccc2)ccn1)c1ccc(-c2cccc([N+](=O)[O-])c2)o1` it is under 1 µg/mL. For `CCc1ccc(NC(=O)CSC2=Nc3ccccc3C3=NC(CC(=O)NCc4ccc5c(c4)OCO5)C(=O)N23)cc1` (stereo not given) the value was 2.36 µg/mL (≈ 4.15 µM).

`Clc1ccc(-c2nnc(C3CCCCC3)o2)cc1` gave a solubility (kinetic) of under 1 µg/mL. For `Cc1noc(C)c1CN1CCNc2cc(Nc3ccccc3)ncc2C1` the value was over 77 µg/mL. For `Cn1cc(Br)c(C2N=C(Nc3nc4ccccc4o3)NC3=C2C(=O)CCC3)n1` (stereo not given) the value was 24.7 µg/mL (≈ 56.1 µM); for `O=C(N/N=C/c1ccc(O)c(O)c1)c1cc2ccccc2cc1O`, 18.2 µg/mL (≈ 56.5 µM); for `COc1cc2c(Oc3ccc(-c4cnc(Nc5ccc(F)cc5)n(C)c4=O)cc3F)ccnc2cc1OCCCN1CCOCC1`, under 1 µg/mL. The figure for `CN(C)c1ccc2cc(C(=O)N[C@@H](CCCN=C(N)CCl)C(=O)NCc3ccccc3)ccc2c1` is 52.4 µg/mL (≈ 106 µM).

In the case of `Cc1cc(-c2cc3c(nc2-c2ccccc2)nc(C(=O)NCCN(C)C)n3C)ccn1`, the kinetic solubility turned out to be 54.5 µg/mL (≈ 132 µM). The figure for `CS(=O)(=O)Nc1cccc(-c2nccc(-n3ccnc3)n2)c1` is over 47 µg/mL; for `CCc1ccccc1C(=O)N1CCc2cc(-c3nc(NC(=O)Cc4ccc5c(c4)OCO5)sc3C)ccc21` it is under 1 µg/mL.

With `CCCc1ccc(-c2csc(NC(=O)c3ccncc3NS(=O)(=O)c3ccc(C)cc3)n2)cc1`, the kinetic solubility was under 1 µg/mL. The figure for `COc1ccc(NC2=C(c3ccc(C(F)(F)F)cc3)C(=O)c3ccccc32)cc1` is 1.04 µg/mL (≈ 2.64 µM).

Compound `Cc1ccc(-n2nc3c(=O)n(CCCC(=O)NCc4ccc(F)cc4)nc(C)c3c2C)cc1` gave a solubility (kinetic) of 5.86 µg/mL (≈ 13.1 µM).

`COc1ccc(NC(=O)C23CC4CC(CC(C4)C2)C3)cc1[S+](=O)([O-])Nc1ccc(Br)cc1` gave a solubility (kinetic) of under 1 µg/mL.

`O=C1Nc2ccc(-c3cccc(C(F)(F)F)c3)cc2C(=O)N2CCN(C(=O)COc3ccccc3)C[C@H]12`: the solubility (kinetic) was under 1 µg/mL.

The compound `COc1ccc(-c2c(-c3cc(C(=O)O)ccn3)ncn2C)cc1` displayed a kinetic solubility of over 46 µg/mL. For `O=C1Nc2ccccc2/C1=C\c1ccc([N+](=O)[O-])cc1` the value was under 1 µg/mL; for `Cc1cc(SCc2sc(-c3ccc(C(F)(F)F)c(F)c3)nc2C)ccc1OCC(=O)O`, over 70 µg/mL.

Turning to `Fc1cc(Nc2nc(-c3ccncc3)nc3ccccc23)ccc1-n1cncn1`, the kinetic solubility is under 1 µg/mL. The compound `NC[C@H](O)c1ccc(O)c(O)c1` came in with a solubility (kinetic) of over 25 µg/mL.

With `O=C(NCCCc1ccccc1)c1cccc(-c2cc(O)c3ncccc3c2)c1`, the solubility (kinetic) was under 1 µg/mL. For `S=C(NCCCc1cnc[nH]1)NCCCN(Cc1ccc(Cl)c(Cl)c1)c1ccc(Br)cn1` the value was under 1 µg/mL; for `Cc1ccccc1NC(=O)Nc1cccs1`, over 34 µg/mL; for `CCCCCCN(CCCCCC)C(=O)Cc1c(-c2ccc(F)cc2)[nH]c2ccccc12`, under 1 µg/mL. The figure for `Cc1ccc(NC(=O)c2cc(S(=O)(=O)NCCC3=CCCCC3)ccc2F)cc1F` is under 1 µg/mL. For `OCc1ccc(-c2nn(Cc3ccccc3)c3ccccc23)o1` the value was 2.72 µg/mL (≈ 8.94 µM); for `O=C1CCCC2=C1C(c1ncccc1Br)N=C(Nc1nc3ccccc3o1)N2` (stereo not given), 7.87 µg/mL (≈ 17.9 µM); for `CCn1ncc(NC(=O)Cn2ncc3cc(-c4cccc(OC)c4)ccc32)n1`, under 1 µg/mL. Compound `c1cc(-c2cc(-c3ccncc3)c3cncn3c2)c2cc[nH]c2c1` came in with a kinetic solubility of under 1 µg/mL. For `Cc1cc(NS(=O)(=O)c2ccc(NC(=O)Cc3ccc(Cl)c(Cl)c3)cc2)no1` the value was over 65 µg/mL; for `Cc1ccc(-c2cc(C(=O)Nc3ccc(S(C)(=O)=O)cc3)c3ccccc3n2)cc1C`, under 1 µg/mL. For the compound `O=C(Nc1nc(-c2ccccc2)cs1)c1ccncc1NS(=O)(=O)c1ccc(F)c(F)c1`, the kinetic solubility is 49.8 µg/mL (≈ 105 µM).

`COc1cccc(CNc2ccc(S(=O)(=O)Nc3ccc(N4CCNCC4)nc3)cc2)c1O` showed a kinetic solubility of 55.9 µg/mL (≈ 119 µM). For `NC(=O)Nc1cc(-c2ccc(CN3CCOCC3)cc2)sc1C(N)=O` the value was 14.3 µg/mL (≈ 39.6 µM).

`COc1ccc(-c2csc(N3CCC(C(N)=O)CC3)n2)cc1` gave a solubility (kinetic) of over 47 µg/mL. The compound `COc1ccc(O)c2c(=O)c3c(OC)cc4c(c3oc12)C1C=COC1O4` (stereo not given) came in with a kinetic solubility of under 1 µg/mL. The figure for `CCOc1ccc(CCNC(=O)c2cc3ccccc3n2Cc2cccc(C)n2)cc1OCC` is under 1 µg/mL; for `CCOc1ccccc1C(=O)Nc1cccnc1C(=O)Nc1cccc(S(=O)(=O)C(F)(F)F)c1` it is under 1 µg/mL. The figure for `O=C(Cc1ccc(O)cc1)N1CC(CNc2ccccc2)C2(C1)CN(c1ccccc1)C2` (stereo not given) is under 1 µg/mL; for `COc1cc(O)c([C@H](CC(=O)N2CC(C)CC(C)C2)c2ccc3c(c2)OCO3)c(OC)c1` (stereo not given in full) it is 2.51 µg/mL (≈ 5.69 µM).
